Test [1] concerns androgen receptor negative prostate (DU145) cell line. As to the kind of experiment: Effect on growth of human tumor cells in culture (viable cells, Trypan blue exclusion). In kind it is cell-based. The note with it: five concentrations (1-100 μM range), read from dose response curve. How it is done: The effect of compounds according to Formula I on the growth of human tumor cells in culture was evaluated using the androgen receptor negative prostate (DU145) cell line. The cell culture was maintained at 37° C. in a humidified atmosphere of 5% CO2.
Cells were treated with compounds according to Formula I at five different concentrations (1-100 μM range) for each compound. For comparison, the cells were treated with curcumin at the same concentrations. The dose response was established by determining the number of viable cells after 96 h of continuous treatment against each of the different test concentrations of each compound. The determination of viable cells was done by the Trypan blue exclusion method. Activity for each compound at each concentration is reported as a percentage of cells that remain viable.
The GI50 values were determined by direct extrapolation from each dose response curve.

Test [2] addresses recombinant FLT1 active protein (Homo sapiens, UniProt P17948). As to the kind of experiment: In vitro filter assay for FLT1 kinase activity. Particulars: 30 min preincubation at room temperature, kinase reaction 20 min at 30° C., 100 μM ATP, 250 μM IGF-1Rtide, triplicate. In kind it is biochemical. How it is done: The inhibition of FLT1 by compounds according to Formula I was assessed by employing an in vitro filter assay for FLT1.
Compounds 1-15 were prepared as 10 mmol stock solutions in DMSO. Curcumin was also prepared as a 10 mmol stock solution for testing in the FLT1 assay. Five units of recombinant FLT1 active protein was incubated with different concentrations of each compound in a 15 μl reaction mixture (50 mM HEPES, 10 mM MgCl2, 1 mM EDTA, 2 mM Dithiothreitol 0.01% NP-40 pH 7.5) for 30 minutes at room temperature (25° C). Kinase reactions were performed for 20 minutes at 30° C. in a volume of 20 μl (15 μl enzyme+compound of Formula I, 2 μl 1 mM ATP (100 μM final concentration), 2 μl of γ 32^pATP (40 μci final concentration) and 250 μM of IGF-1Rtide. 10 μl aliquots of the kinase reaction were spotted onto the center of a filter (2 cm×2 cm P81 phosphocellulose paper square). After 30 seconds, the filters were washed with 0.75% phosphoric acid (3×5 minutes) and once with acetone (5 minutes). The wet filters were transferred into a scintillation vial containing scintillation cocktail ^32P (5 mL). Radioactivity was determined using a scintillation counter. Control analyses were performed with DMSO stock solutions containing no compound. Binding values were corrected for non-specific binding by performing duplicate assays in the absence of FLT1 enzyme and subtracting the non-specific binding values from the values obtained in the presence of FLT1. Counts per minute (CPM) of aliquots containing a compound of Formula I were compared with CPM of control samples. The kinase activity is expressed in percent of the maximal kinase activity. […] All assays were carried out in triplicate.

Where [3] appears, read: Homo sapiens, DU-145, 96 h continuous treatment.

Chain of recombinant FLT1 active protein (P17948 27-1338): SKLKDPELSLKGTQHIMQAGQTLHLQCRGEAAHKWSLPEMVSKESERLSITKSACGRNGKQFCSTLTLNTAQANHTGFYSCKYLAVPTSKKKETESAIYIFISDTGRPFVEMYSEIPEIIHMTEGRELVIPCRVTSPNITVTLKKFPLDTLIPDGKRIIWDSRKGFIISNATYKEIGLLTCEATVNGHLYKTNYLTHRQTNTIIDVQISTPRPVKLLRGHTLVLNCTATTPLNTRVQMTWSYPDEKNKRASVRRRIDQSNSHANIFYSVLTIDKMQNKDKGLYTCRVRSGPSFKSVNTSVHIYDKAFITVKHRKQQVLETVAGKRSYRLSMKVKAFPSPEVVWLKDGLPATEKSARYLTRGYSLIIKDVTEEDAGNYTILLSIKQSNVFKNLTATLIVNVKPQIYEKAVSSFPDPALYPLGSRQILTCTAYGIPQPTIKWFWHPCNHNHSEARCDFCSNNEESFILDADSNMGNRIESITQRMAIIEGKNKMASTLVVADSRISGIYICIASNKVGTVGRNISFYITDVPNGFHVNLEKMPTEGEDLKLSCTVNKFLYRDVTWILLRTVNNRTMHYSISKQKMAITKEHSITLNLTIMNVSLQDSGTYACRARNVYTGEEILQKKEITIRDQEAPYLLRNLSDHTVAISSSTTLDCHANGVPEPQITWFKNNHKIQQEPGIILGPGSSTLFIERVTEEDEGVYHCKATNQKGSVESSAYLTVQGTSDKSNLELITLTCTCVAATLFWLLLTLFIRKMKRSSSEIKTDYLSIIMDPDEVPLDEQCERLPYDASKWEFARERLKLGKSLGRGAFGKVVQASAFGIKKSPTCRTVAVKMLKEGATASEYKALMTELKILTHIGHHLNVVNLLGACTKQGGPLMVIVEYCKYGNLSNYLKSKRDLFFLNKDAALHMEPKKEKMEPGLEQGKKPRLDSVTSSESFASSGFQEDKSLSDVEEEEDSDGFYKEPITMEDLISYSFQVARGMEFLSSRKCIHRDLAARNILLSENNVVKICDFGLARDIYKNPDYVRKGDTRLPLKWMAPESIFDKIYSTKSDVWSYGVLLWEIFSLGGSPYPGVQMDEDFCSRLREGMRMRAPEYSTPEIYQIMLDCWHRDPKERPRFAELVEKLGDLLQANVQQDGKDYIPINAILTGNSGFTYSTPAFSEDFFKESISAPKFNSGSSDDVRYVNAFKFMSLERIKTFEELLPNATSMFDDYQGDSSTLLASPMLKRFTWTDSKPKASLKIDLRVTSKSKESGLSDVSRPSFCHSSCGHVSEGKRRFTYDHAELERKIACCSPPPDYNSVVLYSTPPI

The compound `COc1cccc(OC)c1/C=C/S(=O)(=O)CS(=O)(=O)/C=C/c1c(OC)cccc1OC` [Example 5, bis((E)-2,6-Dimethoxystyrylsulfonyl)methane] returned a GI50 in test [1] (setting [3]) of 25 to 50 µM. In test [2], the IC50 was determined as 12.8 µM.
Compound `N#Cc1ccc(/C=C/S(=O)(=O)CS(=O)(=O)/C=C/c2ccc(C#N)cc2F)c(F)c1` [Example 3, 4-((1E)-2-(((E)-2-Fluoro-4-cyanostyrylsulfonyl)methylsulfonyl)vinyl)-3-fluorobenzonitrile] had a GI50 in test [1] (setting [3]) of 25 to 50 µM. Further, in test [2], the IC50 stood at 0.162 µM.
Regarding `O=S(=O)(/C=C/c1ccc(F)cc1)CS(=O)(=O)/C=C/c1ccc(F)cc1` [Example 11, bis((E)-4-Fluorostyrylsulfonyl)methane], the GI50 in test [1] (setting [3]) was less than 10 µM. The IC50 in test [2] was greater than 100 µM.
`COc1cc(/C=C/S(=O)(=O)CS(=O)(=O)/C=C/c2cc(OC)c(OC)c(OC)c2)cc(OC)c1OC` [Example 14, bis((E)-3,4,5-Trimethoxystyrylsulfonyl)methane] displayed a GI50 in test [1] (setting [3]) of 7.5 µM. Further, the IC50 in test [2] is greater than 10 µM.
Consider `O=S(=O)(/C=C/c1ccc(I)cc1)CS(=O)(=O)/C=C/c1ccc(I)cc1` [Example 10, bis((E)-4-Iodostyrylsulfonyl)methane], for which the IC50 in test [2] is greater than 10 µM.
`COc1cc(/C=C/C(=O)CC(=O)/C=C/c2ccc(O)c(OC)c2)ccc1O` [curcumin, reference compound] gave a concentration for 50% growth inhibition (GI50) in test [1] (setting [3]) of 35 µM. Further, the IC50 in test [2] came to 35 µM.
In the case of `O=S(=O)(/C=C/c1ccc(Br)cc1)CS(=O)(=O)/C=C/c1ccc(Br)cc1` [Example 7, bis((E)-4-Bromostyrylsulfonyl)methane], the GI50 in test [1] (setting [3]) was less than 10 µM. Also, the IC50 in test [2] was 0.316 µM.
For `COc1cc(OC)c(/C=C/S(=O)(=O)CS(=O)(=O)/C=C/c2c(OC)cc(OC)cc2OC)c(OC)c1` [Example 2, bis((E)-2,4,6-Trimethoxystyrylsulfonyl)methane], the GI50 in test [1] (setting [3]) was determined as 75 µM. In addition, the IC50 in test [2] was determined as 0.281 µM.
“4-((1E)-2-(((E)-4-hydroxy-2,6-dimethoxystyrylsulfonyl)methylsulfonyl)vinyl)-3,5-dimethoxyphenol. [Example 15]” came in with a GI50 in test [1] (96 h continuous treatment) of less than 1 µM. The IC50 in test [2] is 0.077 µM.
“bis((E)-Perfluorostyrylsulfonyl)methane [Example 13]” displayed a GI50 in test [1] (96 h continuous treatment) of less than 2.5 µM. The IC50 in test [2] amounted to 0.416 µM.
On to `O=S(=O)(/C=C/c1ccsc1)CS(=O)(=O)/C=C/c1ccsc1` [Example 8, bis((E)-2-(Thiophen-3-yl)vinylsulfonyl)methane], for which, in test [1] (setting [3]), the GI50 was less than 10 µM. In addition, the IC50 in test [2] is 11.2 µM.
`O=S(=O)(/C=C/c1ccccc1)CS(=O)(=O)/C=C/c1ccccc1` [Example 9, bis((E)-Styrylsulfonyl)methane]: in test [1] (setting [3]), the GI50 lay in the range of 10 to 25 µM. Also, the IC50 in test [2] is greater than 100 µM.
The corresponding values for `O=S(=O)(/C=C/c1ccc(F)cc1F)CS(=O)(=O)/C=C/c1ccc(F)cc1F` [Example 4, bis((E)-2,4-Difluorostyrylsulfonyl)methane] are less than 10 µM and 2.23 µM.
The corresponding values for `COc1cc(/C=C/S(=O)(=O)CS(=O)(=O)/C=C/c2ccc(O)c(OC)c2)ccc1O` [Example 1, 4-((1E)-2-(((E)-4-Hydroxy-3-methoxystyrylsulfonyl)methylsulfonyl)vinyl)-2-methoxyphenol] are less than 10 µM and 3.89 µM.
For `O=S(=O)(/C=C/c1ccc(Cl)cc1)CS(=O)(=O)/C=C/c1ccc(Cl)cc1` [Example 6, bis((E)-4-Chlorostyrylsulfonyl)methane], in test [1] (setting [3]), the GI50 fell in the range of 10 to 25 µM. Further, the half-inhibitory concentration (IC50) in test [2] is 51 µM.

Broadly, the GI50 is the concentration that inhibits growth by half. Higher therefore signals lower sensitivity of the cells. By IC50 is commonly meant the point on the concentration scale where inhibition reaches its midpoint.
